Experimental data published in ChEMBL document CHEMBL1144685, “Naphthamides as novel and potent vascular endothelial growth factor receptor tyrosine kinase inhibitors: design, synthesis, and evaluation” (J Med Chem, 2008).
pIC50: −log10 of the molar value.

Legend:
[1] = Oral bioavailability in Sprague-Dawley rat at 2 mg/kg; format: ADME, organism-based; settings: in vivo
[2] = Clearance in Sprague-Dawley rat at 1 mg/kg, iv; format: ADME, organism-based; parameters: dose 1 mg/kg, route intravenous; settings: in vivo
[3] = Volume of distribution at steady state in Sprague-Dawley rat at 1 mg/kg, iv; format: ADME, organism-based; parameters: dose 1 mg/kg, route intravenous; settings: in vivo, read-out: Vdss
HUVEC [4] = assay: cells; settings: Homo sapiens
Description: Inhibition of bFGF-induced proliferation of HUVEC cells

[5] = Intrinsic clearance in rat liver microsomes; format: ADME, Microsome
Cytochrome P450 3A4 = Cytochrome P450 3A4 (Homo sapiens, UniProt P08684)
Sequence of Cytochrome P450 3A4 (P08684 whole entry): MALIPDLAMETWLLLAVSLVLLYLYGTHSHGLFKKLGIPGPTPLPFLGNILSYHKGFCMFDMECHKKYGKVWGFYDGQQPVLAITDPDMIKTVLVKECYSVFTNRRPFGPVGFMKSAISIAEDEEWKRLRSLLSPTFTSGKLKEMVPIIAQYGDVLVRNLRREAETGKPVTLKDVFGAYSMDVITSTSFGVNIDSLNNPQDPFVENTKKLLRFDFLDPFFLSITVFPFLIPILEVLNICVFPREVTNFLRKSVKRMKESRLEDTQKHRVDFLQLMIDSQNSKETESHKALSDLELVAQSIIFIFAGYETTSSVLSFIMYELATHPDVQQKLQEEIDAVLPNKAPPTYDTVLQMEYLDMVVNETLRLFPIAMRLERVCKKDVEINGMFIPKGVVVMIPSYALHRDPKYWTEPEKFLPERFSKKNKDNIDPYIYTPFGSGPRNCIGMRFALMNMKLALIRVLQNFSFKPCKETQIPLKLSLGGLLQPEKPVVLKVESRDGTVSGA

HUVEC [6] = assay: cells; settings: Homo sapiens; remark: listed apart in the source
Description: Inhibition of VEGF-induced proliferation of HUVEC cells

[7] = Half life in Sprague-Dawley rat at 1 mg/kg, iv; format: ADME, organism-based; parameters: dose 1 mg/kg, route intravenous; settings: in vivo
[8] = AUC (0 to 24 hrs) in Sprague-Dawley rat at 2 mg/kg, po; format: ADME, organism-based; parameters: time < 24 hr, dose 2 mg/kg, route oral; settings: plasma
[9] = target: Vascular endothelial growth factor receptor 2 (Homo sapiens, UniProt P35968)
Description: Inhibition of KDR by HTRF assay

Cytochrome P450 2D6 = Cytochrome P450 2D6 (Homo sapiens, UniProt P10635)
Sequence of Cytochrome P450 2D6 (P10635 whole entry): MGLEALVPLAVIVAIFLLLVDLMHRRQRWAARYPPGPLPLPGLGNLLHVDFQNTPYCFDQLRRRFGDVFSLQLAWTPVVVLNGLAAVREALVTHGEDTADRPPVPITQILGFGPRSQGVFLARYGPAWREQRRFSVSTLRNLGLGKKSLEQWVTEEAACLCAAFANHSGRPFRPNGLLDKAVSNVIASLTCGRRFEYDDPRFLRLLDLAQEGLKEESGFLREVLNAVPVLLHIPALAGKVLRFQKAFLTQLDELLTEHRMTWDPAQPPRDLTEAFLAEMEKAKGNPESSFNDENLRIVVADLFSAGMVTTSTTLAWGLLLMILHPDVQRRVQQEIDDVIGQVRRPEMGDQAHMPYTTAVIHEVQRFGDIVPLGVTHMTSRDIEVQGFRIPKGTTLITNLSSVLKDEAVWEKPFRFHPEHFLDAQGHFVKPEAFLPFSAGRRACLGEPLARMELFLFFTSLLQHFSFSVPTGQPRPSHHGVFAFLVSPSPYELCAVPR

[10] = Cmax in Sprague-Dawley rat at 2 mg/kg, po; format: ADME, organism-based; parameters: dose 2 mg/kg, route oral; settings: in vivo
[11] = Mean retention time in Sprague-Dawley rat at 1 mg/kg, iv; format: ADME, organism-based; parameters: dose 1 mg/kg, route intravenous; settings: in vivo
[12] = Intrinsic clearance in human liver microsomes; format: ADME, Microsome
[13] = Inhibition of Erk phosphorylation in human A375 cells; format: cell-based; settings: A-375
HUVEC [14] = assay: Inhibition of FGF-induced proliferation of HUVEC cells; format: functional, cell-based; settings: Homo sapiens
[15] = Cmax in human HT29 cell xenografted CD1 nu/nu mouse at 10 mg/kg, po; format: ADME, organism-based, HT-29; parameters: dose 10 mg/kg, route oral; settings: in vivo
[16] = target: Fibroblast growth factor receptor 2 (Homo sapiens, UniProt P21802); assay: Inhibition of FGFR2
Aurora kinase B = Aurora kinase B (Homo sapiens, UniProt Q96GD4); assay: Inhibition of Aurora B
Sequence of Aurora kinase B (Q96GD4 whole entry): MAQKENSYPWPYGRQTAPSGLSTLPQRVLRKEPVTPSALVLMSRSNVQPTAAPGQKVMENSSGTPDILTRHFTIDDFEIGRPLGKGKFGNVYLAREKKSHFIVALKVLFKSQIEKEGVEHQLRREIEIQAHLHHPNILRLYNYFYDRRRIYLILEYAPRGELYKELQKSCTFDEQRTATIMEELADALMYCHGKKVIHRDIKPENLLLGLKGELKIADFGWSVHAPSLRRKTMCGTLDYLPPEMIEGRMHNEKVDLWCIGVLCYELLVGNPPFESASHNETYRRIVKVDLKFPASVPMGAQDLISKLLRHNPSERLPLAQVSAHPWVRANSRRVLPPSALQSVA

Plasma [17] = assay: Plasma concentration in BALB/c mouse at 3 mg/kg, po; format: ADME, organism-based; parameters: dose 3 mg/kg, route oral; settings: in vivo
Liver microsomes = assay: Metabolic stability assessed as covalent binding in human liver microsomes; format: ADME, Microsome
[18] = Volume of distribution at steady state in Sprague-Dawley rat at 2 mg/kg, iv; format: ADME, organism-based; parameters: dose 2 mg/kg, route intravenous; settings: in vivo, read-out: Vdss
NHDF = assay: Inhibition of PDGF-induced proliferation of NHDF cells; format: functional, cell-based; settings: Homo sapiens
[19] = AUC (0 to 24 hrs) in human HT29 cell xenografted CD1 nu/nu mouse at 3 mg/kg, po; format: ADME, organism-based, HT-29; parameters: time < 24 hr, dose 3 mg/kg, route oral; settings: in vivo
[20] = target: Vascular endothelial growth factor receptor 1 (Homo sapiens, UniProt P17948)
Sequence of Vascular endothelial growth factor receptor 1 (P17948 whole entry): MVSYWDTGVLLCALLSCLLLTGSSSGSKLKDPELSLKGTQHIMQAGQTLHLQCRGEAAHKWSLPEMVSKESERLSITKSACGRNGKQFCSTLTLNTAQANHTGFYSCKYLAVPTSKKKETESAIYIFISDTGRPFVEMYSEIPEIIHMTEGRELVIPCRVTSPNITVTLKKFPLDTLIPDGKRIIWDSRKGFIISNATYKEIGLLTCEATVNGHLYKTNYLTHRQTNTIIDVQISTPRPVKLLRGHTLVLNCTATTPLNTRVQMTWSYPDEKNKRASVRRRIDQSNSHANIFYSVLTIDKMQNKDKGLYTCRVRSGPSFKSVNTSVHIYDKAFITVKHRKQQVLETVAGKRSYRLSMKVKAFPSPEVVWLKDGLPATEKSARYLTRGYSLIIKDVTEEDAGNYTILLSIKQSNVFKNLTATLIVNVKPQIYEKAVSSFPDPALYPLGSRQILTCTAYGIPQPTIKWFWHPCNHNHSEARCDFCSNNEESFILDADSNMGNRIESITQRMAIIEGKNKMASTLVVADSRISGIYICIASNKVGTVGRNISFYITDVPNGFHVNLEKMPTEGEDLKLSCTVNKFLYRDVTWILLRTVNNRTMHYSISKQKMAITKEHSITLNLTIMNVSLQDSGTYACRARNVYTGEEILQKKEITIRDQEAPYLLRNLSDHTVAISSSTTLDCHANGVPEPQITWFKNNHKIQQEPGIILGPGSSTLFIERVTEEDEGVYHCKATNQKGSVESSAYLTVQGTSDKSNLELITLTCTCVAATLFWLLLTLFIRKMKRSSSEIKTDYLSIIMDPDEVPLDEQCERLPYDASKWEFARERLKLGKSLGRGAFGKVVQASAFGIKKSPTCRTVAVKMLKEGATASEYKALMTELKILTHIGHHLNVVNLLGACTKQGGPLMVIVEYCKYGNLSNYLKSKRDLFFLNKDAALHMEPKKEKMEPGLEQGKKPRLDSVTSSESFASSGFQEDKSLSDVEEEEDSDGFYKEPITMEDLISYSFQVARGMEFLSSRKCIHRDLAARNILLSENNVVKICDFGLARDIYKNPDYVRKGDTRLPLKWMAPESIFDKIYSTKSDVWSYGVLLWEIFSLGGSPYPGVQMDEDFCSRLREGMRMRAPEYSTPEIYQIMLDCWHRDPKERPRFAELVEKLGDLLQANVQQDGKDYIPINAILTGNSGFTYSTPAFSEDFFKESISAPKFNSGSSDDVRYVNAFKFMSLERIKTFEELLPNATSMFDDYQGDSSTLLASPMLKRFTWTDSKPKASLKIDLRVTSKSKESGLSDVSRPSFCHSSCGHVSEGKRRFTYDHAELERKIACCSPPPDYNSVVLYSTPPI

[21] = AUC in VEGF soaked disk implanted Sprague-Dawley rat; format: ADME, organism-based; settings: plasma
[22] = Clearance in Sprague-Dawley rat at 2 mg/kg, iv; format: ADME, organism-based; parameters: dose 2 mg/kg, route intravenous; settings: in vivo
[23] = Inhibition of anti-CD3-induced proliferation of human T cells; format: functional, cell-based; settings: T-cell
[24] = AUC (0 to 24 hrs) in Sprague-Dawley rat at 5 mg/kg, po; format: ADME, organism-based; parameters: time < 24 hr, dose 5 mg/kg, route oral; settings: plasma
Plasma [25] = assay: Plasma concentration in CD1 nu/nu mouse at 30 mg/kg, po; format: ADME, organism-based; parameters: dose 30 mg/kg, route oral; settings: in vivo
[26] = Inhibition of histone H3 phosphorylation in human HeLa cells; format: cell-based
[27] = Protein binding in dog plasma; format: ADME, cell-free, Canis lupus familiaris; settings: read-out: PPB (converted)
Plasma [28] = assay: Plasma concentration in CD1 nu/nu mouse at 100 mg/kg, po; format: ADME, organism-based; parameters: dose 100 mg/kg, route oral; settings: in vivo
[29] = Protein binding in mouse plasma; format: ADME, cell-free; settings: read-out: PPB (converted)
[30] = AUC (0 to 24 hrs) in human HT29 cell xenografted CD1 nu/nu mouse at 30 mg/kg, po; format: ADME, organism-based, HT-29; parameters: time < 24 hr, dose 30 mg/kg, route oral; settings: in vivo
[31] = target: Tyrosine-protein kinase Lck (Homo sapiens, UniProt P06239)
Sequence of Tyrosine-protein kinase Lck (P06239 whole entry): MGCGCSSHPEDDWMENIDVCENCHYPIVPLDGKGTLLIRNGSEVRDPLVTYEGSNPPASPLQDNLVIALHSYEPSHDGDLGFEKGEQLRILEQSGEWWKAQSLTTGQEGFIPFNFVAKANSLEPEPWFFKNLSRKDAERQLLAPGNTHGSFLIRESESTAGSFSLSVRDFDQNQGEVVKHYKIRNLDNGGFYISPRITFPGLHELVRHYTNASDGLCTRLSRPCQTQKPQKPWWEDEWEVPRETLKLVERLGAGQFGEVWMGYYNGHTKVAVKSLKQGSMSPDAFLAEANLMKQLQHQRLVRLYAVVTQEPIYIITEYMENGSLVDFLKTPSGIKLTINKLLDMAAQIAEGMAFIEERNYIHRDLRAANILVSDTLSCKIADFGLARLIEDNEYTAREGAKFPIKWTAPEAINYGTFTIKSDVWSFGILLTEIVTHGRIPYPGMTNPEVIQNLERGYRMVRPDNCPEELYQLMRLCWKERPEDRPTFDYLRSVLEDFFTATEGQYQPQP

Plasma [32] = assay: Plasma concentration in BALB/c mouse at 10 mg/kg, po; format: ADME, organism-based; parameters: dose 10 mg/kg, route oral; settings: in vivo
NIH3T3 = assay: Inhibition of CSF1-induced proliferation of BALB/c mouse 3T3 cells; format: functional, cell-based
[33] = Cmax in human HT29 cell xenografted CD1 nu/nu mouse at 30 mg/kg, po; format: ADME, organism-based, HT-29; parameters: dose 30 mg/kg, route oral; settings: in vivo
[34] = AUC (0 to 24 hrs) in human HT29 cell xenografted CD1 nu/nu mouse at 10 mg/kg, po; format: ADME, organism-based, HT-29; parameters: time < 24 hr, dose 10 mg/kg, route oral; settings: in vivo
[35] = target: Macrophage colony-stimulating factor 1 receptor (Homo sapiens, UniProt P07333); assay: Inhibition of c-FMS
[36] = Cmax in human HT29 cell xenografted CD1 nu/nu mouse at 3 mg/kg, po; format: ADME, organism-based, HT-29; parameters: dose 3 mg/kg, route oral; settings: in vivo
Plasma [37] = assay: Plasma concentration in BALB/c mouse at 30 mg/kg, po; format: ADME, organism-based; parameters: dose 30 mg/kg, route oral; settings: in vivo
[38] = Cmax in Sprague-Dawley rat at 5 mg/kg, po; format: ADME, organism-based; parameters: dose 5 mg/kg, route oral; settings: in vivo
[39] = target: Vascular endothelial growth factor receptor 3 (Homo sapiens, UniProt P35916)
Sequence of Vascular endothelial growth factor receptor 3 (P35916 whole entry): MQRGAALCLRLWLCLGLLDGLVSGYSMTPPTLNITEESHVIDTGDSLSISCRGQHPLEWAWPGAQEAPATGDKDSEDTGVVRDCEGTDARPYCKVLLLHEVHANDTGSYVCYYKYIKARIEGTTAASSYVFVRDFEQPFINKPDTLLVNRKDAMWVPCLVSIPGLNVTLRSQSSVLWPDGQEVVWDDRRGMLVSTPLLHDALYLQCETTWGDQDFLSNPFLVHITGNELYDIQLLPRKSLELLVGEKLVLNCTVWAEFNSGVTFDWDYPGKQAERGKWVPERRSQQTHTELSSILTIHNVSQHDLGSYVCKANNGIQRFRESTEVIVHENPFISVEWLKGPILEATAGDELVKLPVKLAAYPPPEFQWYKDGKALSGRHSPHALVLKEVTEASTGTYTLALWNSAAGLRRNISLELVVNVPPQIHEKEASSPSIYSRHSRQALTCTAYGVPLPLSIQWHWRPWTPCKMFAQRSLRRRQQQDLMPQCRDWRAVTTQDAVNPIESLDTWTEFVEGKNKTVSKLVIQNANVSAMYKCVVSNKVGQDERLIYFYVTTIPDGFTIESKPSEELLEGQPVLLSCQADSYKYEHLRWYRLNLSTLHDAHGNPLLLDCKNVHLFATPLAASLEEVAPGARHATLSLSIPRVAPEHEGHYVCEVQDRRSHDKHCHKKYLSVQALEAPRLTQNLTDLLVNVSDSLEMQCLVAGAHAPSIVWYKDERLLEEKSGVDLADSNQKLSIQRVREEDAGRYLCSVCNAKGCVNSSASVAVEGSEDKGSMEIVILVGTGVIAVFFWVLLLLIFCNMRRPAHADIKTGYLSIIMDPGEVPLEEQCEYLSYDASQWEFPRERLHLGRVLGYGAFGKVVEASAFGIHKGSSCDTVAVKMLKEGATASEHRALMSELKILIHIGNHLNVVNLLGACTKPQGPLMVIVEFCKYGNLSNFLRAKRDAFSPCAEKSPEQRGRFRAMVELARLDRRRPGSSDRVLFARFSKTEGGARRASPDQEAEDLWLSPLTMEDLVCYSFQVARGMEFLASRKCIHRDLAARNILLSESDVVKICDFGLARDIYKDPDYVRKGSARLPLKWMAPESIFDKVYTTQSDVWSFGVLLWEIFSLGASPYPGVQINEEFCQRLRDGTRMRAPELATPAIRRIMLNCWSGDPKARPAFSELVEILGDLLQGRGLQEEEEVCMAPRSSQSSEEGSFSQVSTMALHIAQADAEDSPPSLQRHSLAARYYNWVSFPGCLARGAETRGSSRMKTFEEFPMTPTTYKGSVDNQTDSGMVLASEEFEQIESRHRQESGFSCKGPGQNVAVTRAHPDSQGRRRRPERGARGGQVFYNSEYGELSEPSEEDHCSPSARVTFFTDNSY

[40] = Protein binding in rat plasma; format: ADME, cell-free; settings: read-out: PPB (converted)
[41] = target: Serine/threonine-protein kinase B-raf (Homo sapiens, UniProt P15056, V600E); assay: Inhibition of b-Raf V600E
Mus musculus = assay: Antitumor activity against human HT29 cell xenografted CD1 nu/nu mouse assessed as inhibition of tumor growth at 3 mg/kg, po; format: functional; settings: CD1, HT-29
[42] = Mean retention time in Sprague-Dawley rat at 2 mg/kg, iv; format: ADME, organism-based; parameters: dose 2 mg/kg, route intravenous; settings: in vivo
[43] = Cmax in VEGF soaked disk implanted Sprague-Dawley rat; format: ADME, organism-based; settings: in vivo
[44] = Oral bioavailability in Sprague-Dawley rat at 5 mg/kg; format: ADME, organism-based; settings: in vivo
[45] = Half life in Sprague-Dawley rat at 2 mg/kg, iv; format: ADME, organism-based; parameters: dose 2 mg/kg, route intravenous; settings: in vivo
Rattus norvegicus = assay: Inhibition of VEGF-induced angiogenesis in VEGF soaked disk implanted Sprague-Dawley rat cornea assessed as number of blood vessels intersecting the midpoint between the disk and limbus after 7 days; format: functional; settings: 168 h

COc1cc2nccc(Oc3ccc4c(C(=O)Nc5ccccn5)cccc4c3)c2cc1OC
bioavailability [1]: 45% | clearance [2]: 6.67 mL/min/kg | Vd [3]: 3.1 L/kg | pIC50 (HUVEC [4]): 6.54 | microsomal CLint [5]: 90 µL/min/mg | pIC50 (Cytochrome P450 3A4): 4.89 | pIC50 (HUVEC [6]): 8.70 | half-life [7]: 6.1 h | AUC(0-t) at 24 h [8]: 1240 ng·h/mL | pIC50 [9]: 9.10 | pIC50 (Cytochrome P450 2D6): < 4.30 | Cmax [10]: 200 ng/mL | MRT [11]: 7.8 h | microsomal CLint [12]: 80 µL/min/mg

COc1cc2nccc(Oc3ccc4c(C(=O)Nc5ccc(Cl)cc5)cccc4c3)c2cc1OC
pIC50 [13]: < 6.00 | pIC50 (HUVEC [14]): < 5.94 | Cmax [15]: 2200 nM | pIC50 [16]: < 4.70 | pIC50 (Aurora kinase B): < 6.00 | concentration (Plasma [17]): 160 nM | Stability (Liver microsomes): < 100 pM/mg/h | Vd [18]: 7.3 L/kg | pIC50 (HUVEC [4]): < 5.96 | pIC50 (NHDF): 7.60 | AUC(0-t) at 24 h [19]: 6.2 µM·h | microsomal CLint [5]: 50 µL/min/mg | pIC50 [20]: 9.30 | AUC [21]: 1.3 µM·h | clearance [22]: 3.33 mL/min/kg | pIC50 [23]: < 4.70 | AUC(0-t) at 24 h [24]: 5250 ng·h/mL | concentration (Plasma [25]): 4000 nM | pIC50 [26]: 5.96 | pIC50 (Cytochrome P450 3A4): < 4.30 | fraction unbound [27]: 0.026 | concentration (Plasma [28]): 10300 nM | fraction unbound [29]: 0.014 | AUC(0-t) at 24 h [30]: 48.4 µM·h | pIC50 [31]: 7.42 | concentration (Plasma [32]): 490 nM | pIC50 (NIH3T3): 7.60 | Cmax [33]: 3900 nM | AUC(0-t) at 24 h [34]: 24.1 µM·h | pIC50 [35]: 7.70 | Cmax [36]: 500 nM | concentration (Plasma [37]): 1500 nM | Cmax [38]: 420 ng/mL | pIC50 [39]: 8.70 | fraction unbound [40]: 0.02 | pIC50 [41]: 7.40 | inhibition in vivo at 3 mg/kg (Mus musculus): 74% | pIC50 (Cytochrome P450 2D6): < 4.30 | MRT [42]: 31 h | Cmax [43]: 200 nM | bioavailability [44]: 21% | microsomal CLint [12]: 30 µL/min/mg | half-life [45]: 24 h | ED50 (Rattus norvegicus): 0.1 mg/kg
